# Laboratory results from patent publication US5652222A, “Selective inhibition of leukemic cell proliferation by bcr-abl antisense oligonucleotides” (Temple University-of The Commonwealth System of Higher …, priority 1993, dated 1997).
# Tests used:
# [1] = test system: Philadelphia chromosome-positive blast cells of CML patients in blast crisis, L-6 (b2a2) type junction; assay: Colony formation of CML blast crisis patient cells expressing the b2a2 (L-6) junction; format: cell-based, human; settings: for Number of Colonies, Antisense-treated: 40 μg/ml at start, 20 μg/ml 18 h later; for % Inhibition: number of colonies vs untreated
# Method: Leukemia cells were obtained from the marrow of the posterior iliac crest of five CML patients in blast crisis. The cells were diluted 1:2 in Iscove's modified Dulbecco medium (IMDM) to form a cell suspension. Philadelphia chromosome-positive blast cells were isolated by Ficoll-Hypaque density gradient sedimentation to remove non-mononuclear cells. Accordingly, the bone marrow cell suspension was gently overlayed on a Histopaque density gradient (Sigma Chemical Co., St. Louis, Mo.) in a 2:1 ratio, and then spun down for 30 min. at 1500 rpm and 18° C. Cells remaining in the interface layer after centrifugation were collected using a Pasteur pipet, and washed with IMDM at 1000 rpm and […] for 10 min.
# Cells plated into methyl cellulose semisolid media after 7-11 days of culture were recovered from the medium. Total RNA was isolated according to the procedure of Chomczynski et al, Anal. Biochem. 162, 156-159 (1987). The RNA ([…]) isolated from one patient having particularly exuberant cell growth was annealed with the 3' RT-PCR primer GCTTCACACC ATTCCCCATTGT (SEQ ID NO:10) complementary to 22 nucleotides of c-abl exon 2 for 30 minutes at 37° C. Following annealing of the 3' primer, the RNA was reverse transcribed with 500 units of Moloney murine leukemia virus reverse transcriptase at 37° C. for 1 hour. The reaction was stopped and the mixture diluted in 1 x Thermus aquaticus (Taq) polymerase buffer. A 5' primer, the 22 nucleotide oligomer CACAGCATTCCGCTGACCATCA (SEQ ID NO: 11) complementary to bcr exon 2 and additional c-abl exon 2 3' primer were added to a final concentration of 2 ng/μl each with 2.5 units of Taq polymerase for amplification of the cDNA fragments. Sixty cycles of PCR were performed in a Perkin Elmer Thermal Cycler by annealing at 55° C., synthesizing at 72° C. and denaturing at 95° C. The amplification product, corresponding to the b2a2 junction, was thereafter separated on a 2% agarose gel. The band containing the bcr-abl fragment was cut out and cleaned according to a standard technique utilizing a GENE-CLEAN™ kit (Bio 101, Inc.), cloned by blunt end ligation in the BLUESCRIPT SK vector (Stratagene Cloning Systems) linearized by SMA I digestion. Several individual clones were then sequenced using the SEQUENASE™ version 2.0 enzyme (United States Biochemical Corp., Cleveland, Ohio), according to the sequence protocol recommended by the manufacturer. Accordingly, the denatured bcr-abl DNA fragments were annealed with specific primers which flank the cloning site in the BLUESCRIPT SK vector, in the presence of SEQUENASE™ reaction buffer for 15 min. at 37° C. The primer-annealed fragments were incubated at room temperature with SEQUENASE™ version 2.0 enzyme and α-S^35 dAT at 37° C. Subsequently, labelled template-primer complexes were transferred to tubes containing A, T, C and G nucleotides (one nucleotide per tube) and incubated 5-30 min. at 37° C. The samples were then loaded on a previously prepared acrylamide gel, and run for approximately 10 hours. The sequencing gel was dryed, and the film exposed O/N. Sequence analysis of several of the individual clones identified the bcr-abl junction as having the cDNA sequence shown in FIG. 1 (SEQ ID NO:1). The arrow in the figure indicates the bcr-abl breakpoint junction, and the box delineates the 18 nucleotides corresponding to the junction, which forms a preferred target sequence for hybridization of antisense oligomer. The junction corresponds precisely to the L-6 type breakpoint reported by Shtivelman et al., Cell 47, 277 (1986), in which the bcr exon 2 is fused to c-abl exon 2.
# In a similar manner, L-6 type junctions were identified in the remaining CML blast crisis patients by hybridization of RT-PCR amplification products derived from blast crisis CML RNA using a synthetic 18-mer GAAGGGCTTC TTCCTTAT (SEQ ID NO:3) specific for the 18-nucleotide target sequence of the L-6 bcr-abl junction. […]
# [2] = test system: BV173 cells; assay: Survival of leukemic SCID mice; format: in vivo, SCID mice (human leukemic cells); settings: treatment starting from days +7 or +21 (FIG. 12)
# Excerpt: To determine the lethal dose of BV173 cells in the SCID mice, we injected from 10^3 to 10^7 cells into the tail vein and monitored survival at various times postinjection. Mice injected with 10^7, 10^6, 10^5, or 10^4 BV173 cells died 8-10, 9-12, 13-15, or 14-22 weeks later, respectively, due to leukemia cell growth as confirmed on necroscopy. Spleen weight was about 40 times higher than that in noninjected SCID mice while liver and kidneys had numerous metastases and were enlarged 10-fold as compared to noninjected mice. Mice injected with 10^3 BV173 cells were still alive 35 weeks post implantation, and leukemia was never detected. From this study, 10^6 cells was taken as a lethal dose.
# To determine whether synthetic phosphorothioate oligodeoxynucleotides targeted against the bcr-abl junction of […] cells would modify the disease process in SCID mice. SCID mice were injected with 10^6 BV173 cells. The mice then received 1 mg of sense (ATCAATAAGG AAGCCCTTCAGCG, SEQ ID NO:34) or antisense ([…] ATTGAT, SEQ ID NO:29) b2/a2 bcr-abl phosphorothioate oligodeoxynucleotides (pyrogen leven <1 Eu/mg; 0.2 ml in Iscove modified Dulbecco medium in 5-10 seconds) intravenously for each of 9 consecutive days, beginning either 7 or 21 days after introducing 10^6 BV173 cells. Control mice received the diluent (iscove's modified Dulbecco medium) only. These time points approximate distinct disease stages in humans.
Substance,colonies of blast cells formed ([1]; 10 days in semi-solid culture (FIG. 2)),"Number of Colonies, Antisense-treated ([1]; Table 1, patient 1, untreated 450 ± 64) [colonies]","Number of Colonies, Antisense-treated ([1]; Table 1, patient 2, untreated 324 ± 18) [colonies]","% Inhibition ([1]; Table 1, patient 3) [%]","Number of Colonies, Antisense-treated ([1]; Table 1, patient 4, untreated 212 ± 15) [colonies]","Number of Colonies, Antisense-treated ([1]; Table 1, patient 5, untreated 380 ± 16) [colonies]","% Inhibition ([1]; Table 1, patient 5) [%]","inhibition of colony formation ([1]; five L-6 type junction patients, repeated experiments) [%]",mortality / survival outcome [2],survival after i.v. injection of 10^6 BV173 cells [2]
SEQ ID NO:3: synthetic 18-mer GAAGGGCTTC TTCCTTAT specific for the 18-nucleotide target sequence of the L-6 bcr-abl junction (antisense GAAGGGCTTCTTCCTTAT; chemistry not given here),"very few colonies, with a much smaller number of cells",112 ± 18,62 ± 8,90,80 ± 8,70 ± 8,82,60 to 90,–,–
"SEQ ID NO:34: phosphorothioate sense sequence ATCAATAAGGAAGCCCTTCAGCG (23-mer b2a2 sense) (sense ATCAATAAGGAAGCCCTTCAGCG; all phosphorothioate, sugars by position and methylation of C not given here)",–,–,–,–,–,–,–,–,died with diffuse leukemia,10-13 weeks
